Test results reported in patent US20100105666A1, “TRIAZABENZO (A)NAPHTHO(2,1,8-CDE) AZULENE COMPOUNDS” (priority 2007, published 2010).

How the values were obtained:
[1] = tested on: tyrosine hydroxylase (TH) protein in the locus coeruleus (LC); assay: Induction of tyrosine hydroxylase in the locus coeruleus after a single i.p. injection; assay type: in vivo; details: three days after injection, Balb/C mouse; for amount of TH in LC section 1, % relative to the mean value of the control group: LC section 1 (anterior-to-posterior), i.p. 20 mg/kg; for amount of TH in LC section 2, % relative to the mean value of the control group: LC section 2, i.p. 20 mg/kg; for amount of TH in LC section 3, % relative to the mean value of the control group: LC section 3, i.p. 20 mg/kg; for amount of TH in LC section 4, % relative to the mean value of the control group: LC section 4, i.p. 20 mg/kg; for amount of TH in LC section 5, % relative to the mean value of the control group: LC section 5, i.p. 20 mg/kg; for amount of TH in LC section 6, % relative to the mean value of the control group: LC section 6, i.p. 20 mg/kg; for amount of TH in LC section 7, % relative to the mean value of the control group: LC section 7, i.p. 20 mg/kg; for amount of TH in LC section 8, % relative to the mean value of the control group: LC section 8, i.p. 20 mg/kg
Excerpt: An investigation is made, among the compounds, for the capability of bringing about an increase in the tyrosine hydroxylase (TH) protein in the locus coeruleus (LC) of the brain of the Balb/C mouse.
The animals used are male mice of the pure Balb/C strain (Charles River Laboratories) aged 7 to 8 weeks at the time of treatment.
The mice are given a single injection, by the intraperitoneal route, of the compound under test, dissolved in 0.04M HCl solution (corresponding control: […]), if the compound is sufficiently soluble, or in olive oil 90%/DMSO 10% (corresponding control: olive oil 90%/DMSO 10%) for compounds that are insoluble in an aqueous medium.
Three days after the injection of each compound, all the animals are sacrificed by decapitation. The extracted brains are then frozen in liquid nitrogen and stored at −80° C.
Coronal sections 8 microns thick are then taken along the posterior-anterior axis of the LC and fixed. The sections are transferred onto Immobilon-P membranes. The TH is measured by immunodetection and image analysis.

[2] = target: 5HT receptors (type 5HT2A) (Homo sapiens, UniProt P28223); assay: Affinity for receptors, displacement of labelled specific ligand: 5HT2A; assay type: binding
Excerpt: The receptor affinity was accordingly studied for 28 conventional receptors.

[3] = compound 10^−7M, NADPH, 0-60 minutes; for % metabolic stability predicted using hepatic microsomes, Human: human hepatic microsomes 0.33 mg of prot/ml; for % metabolic stability predicted using hepatic microsomes, Mouse: mouse hepatic microsomes 0.33 mg of prot/ml; for % metabolic stability predicted using hepatic microsomes, Rat: rat hepatic microsomes 0.33 mg of prot/ml
Procedure: The predicted metabolic stability is tested by incubation of the compounds at a concentration of 10^−7M in the presence of mouse, rat or human hepatic microsomes (0.33 mg of prot/ml). After addition of NADPH (nicotinamide adenine dinucleotide phosphate, reduced form), samples are taken at 0, 5, 15, 30 and 60 minutes. The enzymatic reaction is stopped using methanol (V/V). The protein is precipitated by centrifugation and the supernatant is analysed by LC-MS-MS.

5HT receptors (type 5HT2A), sequence (P28223 whole entry): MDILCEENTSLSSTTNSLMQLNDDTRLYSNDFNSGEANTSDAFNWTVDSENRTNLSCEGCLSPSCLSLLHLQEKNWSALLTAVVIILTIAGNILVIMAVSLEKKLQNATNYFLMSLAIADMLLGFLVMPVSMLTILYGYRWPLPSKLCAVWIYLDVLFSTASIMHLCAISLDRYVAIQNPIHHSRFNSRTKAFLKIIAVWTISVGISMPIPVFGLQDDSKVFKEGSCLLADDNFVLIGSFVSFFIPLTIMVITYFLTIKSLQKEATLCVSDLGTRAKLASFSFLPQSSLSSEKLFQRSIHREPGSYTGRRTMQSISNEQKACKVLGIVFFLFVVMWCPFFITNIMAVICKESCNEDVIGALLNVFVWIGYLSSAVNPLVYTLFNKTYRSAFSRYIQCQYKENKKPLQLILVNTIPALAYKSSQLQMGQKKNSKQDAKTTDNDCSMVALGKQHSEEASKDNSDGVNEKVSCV

| melting point [°C] | Molecule | amount of TH in LC section 1, % relative to the mean value of the control group [1] [%] | amount of TH in LC section 2, % relative to the mean value of the control group [1] [%] | amount of TH in LC section 3, % relative to the mean value of the control group [1] [%] | amount of TH in LC section 4, % relative to the mean value of the control group [1] [%] | amount of TH in LC section 5, % relative to the mean value of the control group [1] [%] | amount of TH in LC section 6, % relative to the mean value of the control group [1] [%] | amount of TH in LC section 7, % relative to the mean value of the control group [1] [%] | amount of TH in LC section 8, % relative to the mean value of the control group [1] [%] | % inhibition 5HT2A ([2]; concentration 10^−5 M) [%] | % inhibition 5HT2A ([2]; concentration 10^−7 M) [%] | % metabolic stability predicted using hepatic microsomes, Human [3] [%] | % metabolic stability predicted using hepatic microsomes, Mouse [3] [%] | % metabolic stability predicted using hepatic microsomes, Rat [3] [%] |
| --- | --- | --- | --- | --- | --- | --- | --- | --- | --- | --- | --- | --- | --- | --- |
| > 250 | O=C1NCN2c3ccc(Cl)cc3[C@H]3CCN4CCC[C@H]1[C@H]4[C@H]32 (racemic) [Example 1, (5aRS,12aSR,12bSR,12cSR)-7-Chloro-2,3,4,5,5a,10,11,12a,12b,12c-decahydro-1H,12H-3a,9b,11-triazabenzo[a]naphtho[2,1,8-cde]azulen-12-one] | – | – | – | – | – | – | – | – | – | – | – | – | – |
| – | O=C1NC(=O)n2c3c(c4cc(Cl)ccc42)CCN2CCCC1C32 (racemic) [Example 3, (12aRS,12bRS)-7-Chloro-2,3,12a,12b-tetrahydro-4H,4H-3a,9b,11-triazabenzo[a]naphtho[2,1,8-cde]azulene-10,12(5H,11H)-dione] | 55 | 58 | 47 | 48 | 33 | 19 | 5 | 3 | – | – | – | – | – |
| 255 | O=C1NC(=O)N2c3ccccc3[C@H]3CCN4CCC[C@H]1[C@H]4[C@H]32 (racemic) [Example 4, (5aRS,12aSR,12bSR,12cSR)-2,3,5a,12a,12b,12c-Hexahydro-1H,4H-3a,9b,11-triazabenzo[a]naphtho[2,1,8-cde]azulene-10,12(5H,11H)-dione] | 88 | 78 | 70 | 58 | 27 | 14 | 9 | 3 | – | – | – | – | – |
| – | O=C1NC(=O)n2c3c(c4ccccc42)CCN2CCCC1C32 (racemic) [Example 7, (12aRS,12bRS)-2,3,12a,12b-Tetrahydro-1H,4H-3a,9b,11-triazabenzo[a]naphtho[2,1,8-cde]azulene-10,12(5H,11H)-dione] | 63 | 67 | 48 | 47 | 43 | 23 | 7 | 6 | 96 | 34 | – | – | – |
| – | O=C1NC(=O)N2c3ccccc3C3CCN4CCCC1C4C32 (single isomer, unassigned) [Example 5, (5aS,12aR,12bR,12cR)— or (5aR,12aS,12bS,12cS)-2,3,5a,12a,12b,12c-Hexahydro-1H,4H-3a,9b,11-triazabenzo[a]naphtho[2,1,8-cde]azulene-10,12(5H,11H)-dione (enantiomer α)] | – | – | – | – | – | – | – | – | – | – | 75 | 100 | 90 |
| – | O=C1NC(=O)N2c3ccccc3C3CCN4CCCC1C4C32 (single isomer, unassigned) [Example 6, (5aS,12aR,12bR,12cR)— or (5aR,12aS,12bS,12cS)-2,3,5a,12a,12b,12c-Hexahydro-1H,4H-3a,9b,11-triazabenzo[a]naphtho[2,1,8-cde]azulene-10,12(5H,11H)-dione (enantiomer β)] | – | – | – | – | – | – | – | – | – | – | 71 | 100 | 76 |
| – | (5aRS,12aSR,12bSR,12cSR)-7-Chloro-2,3,5a,12a,12b,12c-hexahydro-1H,4H-3a,9b,1′-triazabenzo[a]naphtho[2,1,8-cde]azulene-10,12(5H,11H)-dione [Example 2] | 53 | 54 | 46 | 35 | 25 | 14 | 5 | 3 | – | – | – | – | – |
